Reference: patent US20080255079A1, “Therapeutic Use of Nefopam and Analogues Thereof” (priority 2005, published 2008)
Counter-ions that a name gives are not always drawn. Marks after values point to notes of the source that are not given here.

Legend:
[1] = test system: mice forced to swim (duration of immobility); experiment: Behavioural Despair Test in mouse; type: in vivo; settings: for Duration of Immobility (% change from ctrl): 30 min before test; for anti-depressant activity (in words): ip
Method: Nefopam and (+)-nefopam have been evaluated in the Behavioural Despair Test, a model which detects antidepressant activity. This test was conducted according to the method of Porsolt et al., (1977—Arch. Int. Pharmacodyn., 229:327-336), in which mice are forced to swim in a situation from which they cannot escape rapidly become immobile. Antidepressants decrease the duration of immobility.
Mice (20-27 g male Rj: NMRI) were individually placed in a cylinder (height=24 cm, diameter=13 cm) containing 10 cm water (22° C.) from which they cannot escape. The mice were placed in the water for 6 minutes and the duration of immobility during the last 4 minutes was measured. All compounds were administered i.p. 30 minutes before the test, and compared with a vehicle control group. Imipramine (32 mg/kg i.p.), administered under the same experimental conditions, was used as reference substance.

[2] = test system: formalin-induced paw licking model in mice; experiment: Formalin-induced hyperalgesia (paw licking) in mouse; type: in vivo; settings: for Nociception, hindpaw licking time, early phase: early phase (0-5 min after formalin); for Nociception, hindpaw licking time, early phase / Nociception, hindpaw licking time, late phase: 60 min before formalin, vs vehicle; for Nociception, hindpaw licking time, late phase: late phase (20-30 min after formalin); for licking behaviour compared to vehicle control, first phase (in words): first phase (acute nociceptive pain), at both 60 and 100 mg/kg; for paw licking time compared to vehicle control (in words): po, both phases; for licking behaviour, second phase (in words): second phase (persistent pain states), 100 mg/kg
Method: Nefopam and (+)-nefopam have been evaluated in the formalin-induced paw licking model in mice. […] The late phase seems to be an inflammatory response and is a recognized model of persistent pain. This test may, therefore, be a useful indicator of analgesic efficacy in fibromyalgia. Compounds were evaluated for both an early stage response and a late stage response and compared against morphine as control.
Inflammation was induced by subplantar injection of a 5% formalin solution (0.02 ml) into the mouse right hindpaw (20-25 g male Rj: NMRI). Hindpaw licking time was continuously recorded in a blinded fashion between 0 to 5 minutes (early phase) and between 20 to 30 minutes (late phase) after formalin injection (Hunskaar etal., 1985—J. Neurosci. Methods; 14:69-76).
The test substances and vehicle were orally administered 60 min before formalin injection.

[3] = test system: mice exposed to marbles (marble burying); experiment: Marble Burying Test in mouse; type: in vivo; settings: for Number of marbles buried (% change from ctrl): 30 min before test; for antidepressant and anxiolytic activity (in words): ip
Text: Nefopam and (+)-nefopam have been evaluated in the Marble Burying Test, a model which detects anxiolytic/tranquillizing activity. The method follows that described by Broekkamp et al. (1986—Eur. J. Pharmacol., 126, 223-229). Mice exposed to novel object (marbles) will bury them in the sawdust floor covering. Anxiolytics decrease the number of marbles buried at non-sedative doses.
Mice are individually placed in transparent plastic cages (33×21×18 cm) with 5 cm of sawdust on the floor, and 25 marbles grouped in the centre of the cage. The cage is covered with an inverted plastic cage. Each test cage, together with the marbles, is impregnated with mouse odor beforehand, by leaving 10 mice in the cage for 15 minutes. These mice then play no further role in the experiment. The number of marbles covered by sawdust (⅔ or more) is counted at the end of a 30 minute test.
All compounds were administered i.p. 30 minutes before the test, and compared with a vehicle control group. Clobazam (8 mg/kg i.p.), administered under the same experimental conditions, was used as reference substance.

[4] = conventional release preparations; cited from earlier work

Compound	Nociception, hindpaw licking time, early phase ([2]; 30 mg/kg po) [%]	Nociception, hindpaw licking time, early phase ([2]; 60 mg/kg po) [%*]	Nociception, hindpaw licking time, early phase ([2]; 100 mg/kg po) [%*]	licking behaviour compared to vehicle control, first phase (in words) [2]	Nociception, hindpaw licking time, late phase ([2]; 30 mg/kg po) [%]	Nociception, hindpaw licking time, late phase ([2]; 60 mg/kg po)	Nociception, hindpaw licking time, late phase ([2]; 100 mg/kg po) [%*]	paw licking time compared to vehicle control (in words) [2]	licking behaviour, second phase (in words) [2]	Number of marbles buried (% change from ctrl) ([3]; 10 mg/kg ip)	Number of marbles buried (% change from ctrl) ([3]; 20 mg/kg ip)	Number of marbles buried (% change from ctrl) ([3]; 40 mg/kg ip)	antidepressant and anxiolytic activity (in words) [3]	Duration of Immobility (% change from ctrl) ([1]; 20 mg/kg ip)	Duration of Immobility (% change from ctrl) ([1]; 40 mg/kg ip)	Duration of Immobility (% change from ctrl) ([1]; 60 mg/kg ip)	anti-depressant activity (in words) [1]	further results
CN(C)CCCN1c2ccccc2CCc2ccccc21 [Imipramine]																		Duration of Immobility (% change from ctrl) ([1]; 32 mg/kg ip): −80 * % change from ctrl
CN1CC[C@]23c4c5ccc(O)c4O[C@H]2[C@@H](O)C=C[C@H]3[C@H]1C5 [Morphine]																		Nociception, hindpaw licking time, early phase ([2]; 80 mg/kg po): −98%*; Nociception, hindpaw licking time, late phase ([2]; 80 mg/kg po): −98%*
CN1C(=O)CC(=O)N(c2ccccc2)c2cc(Cl)ccc21 [Clobazam]																		Number of marbles buried (% change from ctrl) ([3]; 32 mg/kg ip): −75 * % change from ctrl
CN1CCOC(c2ccccc2)c2ccccc2C1 (racemic) [Nefopam, 5-methyl-1-phenyl-3,4,5,6-tetrahydro-1H-2,5-benzoxazocine hydrochloride]	−28	−64	−85	significant reduction in licking behaviour	−41	−63%*	−89	dose-dependently decreased paw licking time	significant reduction in licking behaviour	−66 * % change from ctrl	−98 * % change from ctrl	−100 * % change from ctrl	significant antidepressant and anxiolytic activity	−42	−85 * % change from ctrl	−100 * % change from ctrl	significant anti-depressant activity	elimination half-life [4]: four
CN1CCO[C@@H](c2ccccc2)c2ccccc2C1 [(+)-Nefopam]	−40	−59	−86	significant reduction in licking behaviour	−31	−69%	−90	dose-dependently decreased paw licking time	significant reduction in licking behaviour	−56 * % change from ctrl	−99 * % change from ctrl	−100 * % change from ctrl	significant antidepressant and anxiolytic activity	−38	−92 * % change from ctrl	−100 * % change from ctrl	significant anti-depressant activity	
